Results from PMC3152580 (Journal of the American Chemical Society, 2011).

Target: E. coli Alkaline Phosphatase (AP) (Escherichia coli, UniProt P00634)
Assay type: biochemical
Conditions: pH 8

Chain of E. coli Alkaline Phosphatase (AP) (P00634 22-471): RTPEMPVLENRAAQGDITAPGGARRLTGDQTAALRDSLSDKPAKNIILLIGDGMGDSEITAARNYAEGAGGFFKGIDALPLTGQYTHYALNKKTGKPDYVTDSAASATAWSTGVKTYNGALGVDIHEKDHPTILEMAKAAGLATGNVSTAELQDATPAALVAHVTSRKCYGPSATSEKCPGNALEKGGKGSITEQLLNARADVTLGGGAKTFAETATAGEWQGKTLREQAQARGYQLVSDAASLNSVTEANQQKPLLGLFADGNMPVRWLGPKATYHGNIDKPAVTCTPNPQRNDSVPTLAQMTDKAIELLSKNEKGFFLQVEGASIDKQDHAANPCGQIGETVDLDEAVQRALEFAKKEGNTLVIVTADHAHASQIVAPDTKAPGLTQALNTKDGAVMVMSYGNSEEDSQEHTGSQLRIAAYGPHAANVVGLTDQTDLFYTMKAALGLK

O=S(=O)(O)O [sulfate]
differential binding energy between Pi and sulfate binding: at least 8.5 kcal/mol | inhibition of AP by sulfate: No significant inhibition
